From ChEMBL document CHEMBL1909046, “DrugMatrix in vitro pharmacology data”

Tests used:
Cytochrome P450 2A6 = molecular target: T1, Cytochrome P450 2A6 (Homo sapiens, UniProt P11509); settings: bti-tn-5b1-4; note: in other assays of this panel Not Active means under 50% inhibition at 10 µM
T1 sequence (P11509 whole entry): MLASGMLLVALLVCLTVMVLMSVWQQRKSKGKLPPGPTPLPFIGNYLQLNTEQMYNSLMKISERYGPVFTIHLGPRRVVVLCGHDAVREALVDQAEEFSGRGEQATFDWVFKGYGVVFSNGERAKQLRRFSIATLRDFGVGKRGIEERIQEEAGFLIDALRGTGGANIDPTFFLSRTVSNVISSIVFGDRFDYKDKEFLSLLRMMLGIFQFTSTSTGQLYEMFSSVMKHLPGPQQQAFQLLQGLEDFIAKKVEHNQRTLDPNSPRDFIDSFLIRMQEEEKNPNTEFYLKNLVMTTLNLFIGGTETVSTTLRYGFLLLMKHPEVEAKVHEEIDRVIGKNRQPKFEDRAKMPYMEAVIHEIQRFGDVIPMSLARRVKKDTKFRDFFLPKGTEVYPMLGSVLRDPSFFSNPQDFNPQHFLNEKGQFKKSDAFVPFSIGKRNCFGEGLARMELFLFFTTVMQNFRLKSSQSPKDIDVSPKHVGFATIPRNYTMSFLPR

Leukotriene C4 synthase = molecular target: T2, Leukotriene C4 synthase (Cavia porcellus, UniProt A6XA80); assay type: tissue-based, Lung;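 note: enzyme inhibition assay of leukotriene C4 synthase, using LTA4 as the substrate; in other assays of this panel Not Active means under 50% inhibition at 10 µM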
T2 sequence (A6XA80 whole entry): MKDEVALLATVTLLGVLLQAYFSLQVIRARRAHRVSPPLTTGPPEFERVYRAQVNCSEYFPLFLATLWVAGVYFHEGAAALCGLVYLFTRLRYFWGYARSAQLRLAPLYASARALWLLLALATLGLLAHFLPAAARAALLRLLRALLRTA

[1] = molecular target: T3, Alpha-1A adrenergic receptor (Rattus norvegicus, UniProt P43140); test: DRUGMATRIX: Alpha-1A adrenergic receptor radioligand binding (ligand: prazosin); assay type: cell membranes, Wistar, Submaxillary gland, Membrane; settings: Not Active = under 50% inhibition at 10 µM
T3 sequence (P43140 whole entry): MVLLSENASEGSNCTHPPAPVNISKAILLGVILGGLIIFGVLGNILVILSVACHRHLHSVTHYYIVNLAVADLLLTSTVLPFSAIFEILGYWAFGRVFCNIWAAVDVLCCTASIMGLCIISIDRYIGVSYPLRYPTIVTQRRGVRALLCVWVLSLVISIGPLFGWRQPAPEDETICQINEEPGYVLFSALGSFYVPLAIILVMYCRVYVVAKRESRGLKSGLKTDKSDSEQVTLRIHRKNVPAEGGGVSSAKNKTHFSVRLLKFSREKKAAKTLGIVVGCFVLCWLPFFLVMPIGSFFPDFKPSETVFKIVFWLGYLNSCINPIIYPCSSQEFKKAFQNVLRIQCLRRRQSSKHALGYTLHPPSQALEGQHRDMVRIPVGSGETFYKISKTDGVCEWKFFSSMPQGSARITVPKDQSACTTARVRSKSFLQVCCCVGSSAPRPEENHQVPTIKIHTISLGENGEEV

Estrogen receptor = molecular target: T4, Estrogen receptor (Homo sapiens, UniProt P03372); settings: sf9; note: in other assays of this panel Not Active means under 50% inhibition at 10 µM
T4 sequence (P03372 whole entry): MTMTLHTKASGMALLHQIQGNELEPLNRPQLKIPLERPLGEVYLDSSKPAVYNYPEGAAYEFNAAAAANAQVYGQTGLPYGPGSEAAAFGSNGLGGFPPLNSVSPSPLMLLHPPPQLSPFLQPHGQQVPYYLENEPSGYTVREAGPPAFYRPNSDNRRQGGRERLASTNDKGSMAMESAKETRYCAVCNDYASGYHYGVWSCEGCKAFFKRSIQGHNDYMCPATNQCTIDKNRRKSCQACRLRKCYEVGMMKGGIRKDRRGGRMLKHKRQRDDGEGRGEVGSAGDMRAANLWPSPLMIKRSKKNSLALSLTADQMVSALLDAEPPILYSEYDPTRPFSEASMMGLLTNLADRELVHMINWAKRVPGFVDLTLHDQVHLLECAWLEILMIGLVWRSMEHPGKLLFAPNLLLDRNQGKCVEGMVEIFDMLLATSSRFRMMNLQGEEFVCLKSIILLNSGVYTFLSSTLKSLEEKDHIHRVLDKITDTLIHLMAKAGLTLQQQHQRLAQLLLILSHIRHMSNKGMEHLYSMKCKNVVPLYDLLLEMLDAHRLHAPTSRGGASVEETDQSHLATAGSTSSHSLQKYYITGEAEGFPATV

| Molecule | IC50 (Cytochrome P450 2A6) | Ki (Cytochrome P450 2A6) | IC50 (Leukotriene C4 synthase) | IC50 [1] | IC50 (Estrogen receptor) | IC50 ([1]; read-out: IC50) [nM] | Ki ([1]; read-out: Ki) [nM] | Ki (Leukotriene C4 synthase) | Ki [1] | Ki (Estrogen receptor) |
| --- | --- | --- | --- | --- | --- | --- | --- | --- | --- | --- |
| C[C@@H]1O[C@@H](O[C@H]2C[C@@H](O)[C@]3(CO)[C@H]4[C@H](O)C[C@]5(C)[C@@H](C6=CC(=O)OC6)CC[C@]5(O)[C@@H]4CC[C@]3(O)C2)[C@H](O)[C@H](O)[C@H]1O [OUABAIN] | Not Active | Not Active | Not Active | Not Active | Not Active |  |  |  |  |  |
| COc1ccnc(C[S+]([O-])c2nc3ccc(OC(F)F)cc3[nH]2)c1OC (configuration not stated) [PANTOPRAZOLE] | Not Active | Not Active | Not Active | Not Active | Not Active |  |  |  |  |  |
| N=C(N)c1ccc(OCCCCCOc2ccc(C(=N)N)cc2)cc1 [PENTAMIDINE] | Not Active | Not Active | Not Active |  | Not Active | 1210 | 491 |  |  |  |
| NNCCc1ccccc1 [PHENELZINE] | Not Active | Not Active | Not Active | Not Active | Not Active |  |  |  |  |  |
| CCc1ccc(CCOc2ccc(CC3SC(=O)NC3=O)cc2)nc1 (configuration not stated) [PIOGLITAZONE] | Not Active | Not Active | Not Active | Not Active | Not Active |  |  |  |  |  |
| CCCNC(C)C(=O)Nc1ccccc1C (configuration not stated) [PRILOCAINE] | Not Active | Not Active | Not Active | Not Active | Not Active |  |  |  |  |  |
| CCN(CC)CCCC(C)Nc1c2ccc(Cl)cc2nc2ccc(OC)cc12 (configuration not stated) [QUINACRINE] | Not Active | Not Active | Not Active | Not Active | Not Active |  |  |  |  |  |
| C[C@]12C=CC(=O)C=C1CC[C@H]1[C@@H]3C[C@@H](O)[C@](O)(C(=O)CO)[C@@]3(C)C[C@H](O)[C@@]12F [TRIAMCINOLONE] | Not Active | Not Active | Not Active | Not Active | Not Active |  |  |  |  |  |
| CC[C@]1(O)C[C@@H]2CN(CCc3c([nH]c4ccccc34)[C@@](C(=O)OC)(c3cc4c(cc3OC)N(C)[C@H]3[C@@](O)(C(N)=O)[C@H](O)[C@]5(CC)C=CCN6CC[C@]43[C@@H]65)C2)C1 [VINDESINE] | Not Active | Not Active | Not Active | Not Active | Not Active |  |  |  |  |  |
| CCN(C(C)=O)c1cccc(-c2ccnc3c(C#N)cnn23)c1 [ZALEPLON] | Not Active | Not Active | Not Active | Not Active | Not Active |  |  |  |  |  |
| COBALTOUS CHLORIDE | Not Active | Not Active | Not Active | Not Active | Not Active |  |  | Not Active | Not Active | Not Active |
| COLISTIN | Not Active | Not Active | Not Active | Not Active | Not Active |  |  | Not Active | Not Active | Not Active |
